# In article PMC4773758, “Small Molecule Inhibited Parathyroid Hormone Mediated cAMP Response by N–Terminal Peptide Binding” (Scientific Reports, 2016):
# Tests used:
# [1] = Water solubility; format: physicochemical; settings: in the absence of the metal
# Source text: As GPCRs are involved in many diseases, they are targets for approximately 40% of all human modern medicinal drugs. However, these drugs target only a small fraction (about 10%) of known GPCRs[37]. Within the context of receptors including GPCRs, typically available drug molecules for pharmacological applications directly target the receptors. However, literature is limited with regards to molecules which bind to the agonist to modify its receptor activating function. A potential class of molecules for this purpose could be organic/coordination/mixed–ligand complexes. In mixed–ligand complexes one metal ion can replace another metal ion bearing the original skeletal system. A metal replacement can lead to suppressed or negligible biological responses. […] In principle, Zn(II) is less toxic than Cu(II) and it is redox silent therefore, this metal was chosen in exchange of Cu(II).
# [2] = system: PTH1R in HEK 293 cells; assay: cAMP assay, compound pre-incubated with cells followed by PTH(1–84); format: cell-based, Human; settings: compound pre-incubated with the cells, then PTH(1–84)
# Protocol: (§1) The cAMP generation was also analyzed to see the effect of the Zn complex on the receptor itself. Here, the Zn complex was pre-incubated with the cells followed by addition of PTH(1–84). […] In another control experiment cAMP generation was also studied by incubating the 9-anthracenemethanol with the peptide (Figure S9) or directly with the cells (grey bars in Figure S7). […] Additionally, inhibition of cAMP response or cell toxicity was also not observed up to 100 μM of Zn–perchlorate (Figure S10).
# HEK 293 cells stably expressing hPTH1R were used for the cAMP accumulation assay following the previously reported procedure. The reaction was carried out at 37 °C and fluorescence measurements were taken using a VICTOR X4 2030 plate reader (PerkinElmer Life and Analytical Sciences). A fixed amount of 0.01 μM peptide hormones and 4 × 10^3 cells per well were used to monitor the cAMP response. The Zn complex or 9-anthracenemethanol was diluted form 0.1 μM to 100 μM and incubated for 15 minutes with the peptide hormone before addition of HEK 293 cells. […] The maximum cAMP response were calculated as a percentage of the maximal response of PTH(1–34) or PTH(1–84). The effect of Zn complex or 9-anthracenemethanol on receptor was evaluated by incubating these with the cells for 15 minutes followed by washing with buffer. […]
# [3] = biological target: T1, PTH(1–84) (Homo sapiens, UniProt P01270); assay: NMR 1H–15N HSQC titration with 15N–PTH(1–84); format: binding; settings: pH 5.3, 25 °C
# T1 construct: SUMO (N, cleaved yes); His-tag (C); made in house; host or cells: E. coli BL21 codon+
# T1 sequence (P01270 32-115): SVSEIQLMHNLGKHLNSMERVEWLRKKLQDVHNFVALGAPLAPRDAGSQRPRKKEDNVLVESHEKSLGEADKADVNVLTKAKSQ
# Source text: Preferential binding at residue-level resolution was further investigated by choosing full length ^15N PTH(1–84) to see whether or not the C–terminal region is involved in the Zn complex interaction. […] These NMR spectra indicate that the N–terminal domain of PTH (1–84) binds to the Zn complex whereas the C–terminus part remains solvent exposed and flexible enough to result in observable resonances. […] Histidine 63 is the only exception in the C–terminal part of PTH(1–84) sensing complex formation.
# The spectra were recorded at the concentration of 50 μM of peptide hormones. Subsequently, titration was carried out with the addition of 0.5 μl of 10 mM Zn complex until there was no further change in NMR intensity observed. The spectrum corresponding to the 1:4 complex formations was used for the analysis. For the 9-anthracenemethanol titration experiment 20 μM of PTH was used. A titration was carried out and the 1:4 complex of PTH:9-anthracenemethanol was analyzed in detail. The spectra were corrected for the dilution factor. The previously determined NMR assignments of PTH resonances were used[24][63][64]. The spectra were recorded in the 10 mM BisTris, 300 mM Na2SO4, 0.02% NaN3, pH 5.3, with a Bruker 800 MHz Avance III spectrometer equipped with a CP–TCI cryoprobe at 25 °C. Spectra were processed using the programs NMRPipe and NMR Draw.
# [4] = system: PTH(1–84) induced cAMP in HEK 293 cells expressing hPTH1R; assay: cAMP accumulation assay, compound pre-incubated with PTH(1–84); format: cell-based, Human
# Source text: NMR spectroscopy identified that the Zn complex interacts with the N–terminal part of the peptide hormone. The binding region from residues 1–37 of PTH(84) is important for recognition, interaction with the extracellular loops and trans–membrane helices of the receptor and bringing about activation of the later. There are two principal signal transduction pathways involving the G protein–coupled receptors: the cAMP signal pathway and the phosphatidylinositol signal pathway. Parathyroid hormone is involved in the cAMP pathway for its biological regulation. Because binding of the Zn complex was at the N–terminal part of PTH, it is interesting to investigate the cAMP response towards its receptor in the presence of the Zn complex. Therefore PTH(1–34) and PTH(1–84) induced cAMP accumulation was measured in stable HEK 293 cell lines expressing recombinant PTH1R[33]. A cAMP generation assay was carried out in a Zn complex concentration dependent manner, keeping the cells and peptide hormone concentrations constant. PTH response without Zn complex was considered as 100% cAMP response. The peptide hormones were exposed to Zn complex for 15 minutes to allow for complex formation and subsequently cAMP generation was studied.
# HEK 293 cells stably expressing hPTH1R were used for the cAMP accumulation assay following the previously reported procedure. The reaction was carried out at 37 °C and fluorescence measurements were taken using a VICTOR X4 2030 plate reader (PerkinElmer Life and Analytical Sciences). A fixed amount of 0.01 μM peptide hormones and 4 × 10^3 cells per well were used to monitor the cAMP response. The Zn complex or 9-anthracenemethanol was diluted form 0.1 μM to 100 μM and incubated for 15 minutes with the peptide hormone before addition of HEK 293 cells. All experiments were performed in triplicate and repeated independently three times. The maximum cAMP response were calculated as a percentage of the maximal response of PTH(1–34) or PTH(1–84). The effect of Zn complex or 9-anthracenemethanol on receptor was evaluated by incubating these with the cells for 15 minutes followed by washing with buffer. These treated cells were added to the reaction mixture containing untreated PTH(1–84) as described above.
# [5] = biological target: T1, PTH(1–84); assay: Fluorescence quenching titration with PTH(1–84); format: binding
# Protocol: (§2) The natural form of parathyroid hormone comprises 84 residues, however, PTH(1–34) is sufficient for receptor activation. PTH contains one tryptophan residue at position 23. Thus it can be used as a highly sensitive fluorescent probe for the analysis of ligand binding by fluorescence spectroscopy. PTH is composed of structured sections mainly from positions 1–37, whereas the C–terminal part is largely unstructured. […] In order to establish the binding a titration experiment was carried out where the PTH(1–34) concentration was kept constant and the concentration of the Zn complex was varied.
# (§3) The fluorescence quenching behavior was analyzed according to the equation given in the experimental section. […] In order to evaluate the interaction at the C–terminal part of the PTH and its role in binding, full length PTH(1–84) was taken and its binding was established.
# (§4) Fluorescence titrations were carried out on a JASCO FP6500. The samples were excited at 280 nm wavelength and the emission spectra were recorded in the range between 290 nm to 450 nm. Experiments were carried out in 10 mM BisTris, 300 mM Na2SO4, 0.02% NaN3, pH 7.2 using a 1 cm path length quartz cell. The concentration of PTH(1–34), PTH(1–84) and nECD-PTH1R used in the titration experiments were 7.4 μM, 8.1 μM and 5 μM, respectively. In a typical titration experiment, 4 μM of Zn complex or 9-anthracenemethanol was added and spectra were recorded after each addition. Zn complex or 9-anthracenemethanol in buffer was used as blank titration and these spectral traces were subtracted from the main titration. The Zn complex or 9-anthracenemethanol was dissolved in dimethyl sulfoxide and further diluted for experiments. The final concentration of DMSO was <1% in any experiment.
# (§5) Fluorescence data were analyzed according to the following equation:
# (§6) with P = (P0 / (V0 + L))V0 and L1 = (L0 / (V0 + L))L and Q – fluorescence intensity, P – protein concentration, L – ligand concentration, V – volume, n – binding sites and 0 – indicates start point.
# [6] = biological target: T1, PTH(1–84); assay: ITC with PTH(1–84); format: binding; settings: 25 °C
# Protocol: (§7) ITC is a well suited method to evaluate protein-ligand interaction. The interaction of the Zn complex with PTH(1–34) and PTH(1–84) was evaluated by ITC at 25 °C. Zn complex binding was exothermic in nature for both the peptides (Fig. 3b and Figure S4). Data fitting gave n values of 2.28 ± 0.13 and 1.93 ± 0.04 for PTH(1–34) and PTH(1–84), respectively. […] The enthalpic gain counterbalances the unfavorable loss in entropy of the system upon complex binding.
# (§8) The calorimetric titrations were performed at 25 °C with a MicroCal VPITC isothermal titration calorimeter. Small aliquots (7 μl) of the Zn complex were added to a solution of the respective peptide in the calorimeter cell. Successive additions were separated by a 300 second interval to allow the resulting peak from peptide Zn complex interaction to return to the baseline. All of the studies were carried out in 10 mM BisTris, 300 mM Na2SO4, pH 7.2.
# [7] = parameters: method as in PMID 21709916; settings: cited from earlier work
# [8] = biological target: T2, PTH(1–34) (Homo sapiens, UniProt P01270); assay: ITC with PTH(1–34); format: binding; settings: 25 °C
# T2 construct: Human PTH(1–34) and PTH(1–84) were purified as previously reported; SUMO (N, cleaved yes); His-tag (C); made in house; host or cells: E. coli BL21 codon+
# T2 sequence (P01270 32-65 limits assumed): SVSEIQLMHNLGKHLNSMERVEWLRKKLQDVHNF
# Protocol: as §7, §8
# [9] = system: cancer cells; parameters: method as in PMID 21709916; settings: broad range of cancer cells; cited from earlier work
# [10] = system: PTH(1–34) induced cAMP in HEK 293 cells expressing hPTH1R; assay: cAMP accumulation assay, compound pre-incubated with PTH(1–34); format: cell-based, Human; settings: PTH(1–34) 0.01 μM, 15 min pre-incubation with peptide
# Source text: NMR spectroscopy identified that the Zn complex interacts with the N–terminal part of the peptide hormone. The binding region from residues 1–37 of PTH(84) is important for recognition, interaction with the extracellular loops and trans–membrane helices of the receptor and bringing about activation of the later. There are two principal signal transduction pathways involving the G protein–coupled receptors: the cAMP signal pathway and the phosphatidylinositol signal pathway. Parathyroid hormone is involved in the cAMP pathway for its biological regulation. […] Therefore PTH(1–34) and PTH(1–84) induced cAMP accumulation was measured in stable HEK 293 cell lines expressing recombinant PTH1R[33]. […]
# HEK 293 cells stably expressing hPTH1R were used for the cAMP accumulation assay following the previously reported procedure. The reaction was carried out at 37 °C and fluorescence measurements were taken using a VICTOR X4 2030 plate reader (PerkinElmer Life and Analytical Sciences). […] The maximum cAMP response were calculated as a percentage of the maximal response of PTH(1–34) or PTH(1–84). The effect of Zn complex or 9-anthracenemethanol on receptor was evaluated by incubating these with the cells for 15 minutes followed by washing with buffer. […]
# [11] = biological target: T2, PTH(1–34); assay: Fluorescence quenching titration with PTH(1–34); format: binding
# Protocol: as §2, §3, §4, §5, §6
# [12] = system: HEK 293 cells; assay: Cell viability, MTT assay; format: cell-based, Human; settings: up to 100 μM, MTT after 3h
# Protocol: as §1
# Figure S10: (a) cAMP response and (b) cell viability against Zn–perchlorate. Cell viability was tested after 3h using MTT assay.
compound,measurement,setting,value
c1ccc(-c2cc(-c3c4ccccc4cc4ccccc34)cc(-c3ccccn3)n2)nc1 [anthracenyl terpyridine],water solubility,[1],water insoluble
"OCc1c2ccccc2cc2ccccc12 [9-anthracenemethanol, reference compound]",suppression of cAMP generation,[2],significant suppression of intracellular cAMP generation was not observed
same,change in NMR cross peaks / intensity of PTH(1–84),[3],no residue specific NMR intensity loss
same,suppression of intracellular cAMP generation,[4]; compound incubated with the peptide PTH(1–84),significant suppression of intracellular cAMP generation was not observed
same,Kd,[5]; fluorescence titration against PTH(1–84),3520 ± 380 µM
Zn(II) complex of anthracenyl terpyridine [Zn complex],suppression of cAMP generation,[2],did not show a significant suppression
same,Kd,[6],54.1 ± 0.08 µM
same,n (ITC),[6],1.93 ± 0.04
same,∆H (ITC),[6],-11.25 ± 0.3 kcal/mol
same,∆S (ITC),[6],−7.15 cal mol^−1K^−1
same,nuclease activity,[7],did not show nuclease or antiprolifirative activities
same,Kd,[8],55.06 ± 0.06 µM
same,n (ITC),[8],2.28 ± 0.13
same,∆H (ITC),[8],-5.9 ± 0.1 kcal/mol
same,∆S (ITC),[8],−5.37 cal mol^−1K^−1
same,antiproliferative activity,[9],did not show nuclease or antiprolifirative activities
same,concentration for complete suppression of the cAMP response,[10],~ 20 μM
same,IC50,[10]; read-out: concentration at which 50% reduced activity (cAMP response) was observed,2 µM
same,change in NMR cross peaks / intensity of PTH(1–84),[3],binds to N–terminal residues
same,reduced fluorescence intensity at the end of the titration,"[11]; 76 μM of Zn complex, PTH(1–34)",~ 86%
same,CF50 (concentration required for 50% quenching of fluorescence intensity),[11]; PTH(1–34),21.46 ± 0.5 µM
same,stoichiometry (numbers of binding sites with equal affinities),"[11]; fluorescence quenching, PTH(1–34)",1.9
same,Kd,"[11]; fluorescence quenching, PTH(1–34) 7.4 μM, pH 7.2",27 ± 1.8 µM
same,concentration for complete suppression of the cAMP response,"[4]; PTH(1–84) 0.01 μM, 15 min pre-incubation with peptide",~ 20 μM
same,IC50,"[4]; PTH(1–84) 0.01 μM, 15 min pre-incubation with peptide, read-out: concentration at which 50% reduced activity (cAMP response) was observed",2 µM
same,reduced fluorescence intensity at the end of the titration,"[5]; 76 μM of Zn complex, PTH(1–84)",~ 75%
same,CF50 (concentration required for 50% quenching of fluorescence intensity),[5]; PTH(1–84),31.8 ± 0.8 µM
same,stoichiometry,"[5]; fluorescence quenching, PTH(1–84)",2.0
same,Kd,"[5]; fluorescence quenching, PTH(1–84) 8.1 μM, pH 7.2",34 ± 1.7 µM
Cu(II) complex of anthracenyl terpyridine [reference compound],nuclease activity,[7],showed nuclease and antiprolifirative activity
same,antiproliferative activity,[9],showed nuclease and antiprolifirative activity
"[O-][Cl+3]([O-])([O-])[O-].[O-][Cl+3]([O-])([O-])[O-].[Zn+2] [Zn–perchlorate, reference compound]",cell toxicity,[12],not observed
same,change in NMR cross peaks / intensity of PTH(1–84),[3],did not show a significant change in NMR cross peaks
same,inhibition of cAMP response,[4]; up to 100 μM,not observed
same,change in fluorescence intensity,"[5]; up to 200 μM, PTH(1–84)",did not show any significant change
